# Measurements: BindingDB's records for doi:10.1016/j.bmcl.2003.12.105 (Ucb Pharma, 2004)
# Experiment: Inhibition of [3H](+)-pentazocine binding to Sigma receptor type 1
row,SMILES,Ki [nM]
1,"COc1ccc2c(c1)[C@]1(CCN(C)CC(=O)OC(C)(C)C)CCCC[C@@H]1C=C2 [{[2-((4aS,10aR)-6-Methoxy-1,3,4,10a-tetrahydro-2H-phenanthren-4a-yl)-ethyl]-methyl-amino}-acetic acid tert-butyl ester; compound with GENERIC INORGANIC NEUTRAL COMPONENT]",373

# Experiment: as above
# Remark: another data set of the same source
row,SMILES,Ki [nM]
1,"COc1ccc2c(c1)[C@]1(CCN(C)CCO)CCCC[C@@H]1C=C2 [2-{[2-((4aS,10aR)-6-Methoxy-1,3,4,10a-tetrahydro-2H-phenanthren-4a-yl)-ethyl]-methyl-amino}-ethanol]",161
2,"COc1ccc2c(c1)[C@]1(CCN(C)CCOCc3ccccc3)CCCC[C@@H]1C=C2 [(2-Benzyloxy-ethyl)-[2-((4aS,10aR)-6-methoxy-1,3,4,10a-tetrahydro-2H-phenanthren-4a-yl)-ethyl]-methyl-amine; compound with GENERIC INORGANIC NEUTRAL COMPONENT]",241
3,"COCCN(C)CC[C@@]12CCCC[C@@H]1C=Cc1ccc(OC)cc12 [(2-Methoxy-ethyl)-[2-((4aS,10aR)-6-methoxy-1,3,4,10a-tetrahydro-2H-phenanthren-4a-yl)-ethyl]-methyl-amine; compound with GENERIC INORGANIC NEUTRAL COMPONENT]",49
4,"C=CCN(C)CC[C@@]12CCCC[C@@H]1C=Cc1ccc(OC)cc12 [Allyl-[2-((4aS,10aR)-6-methoxy-1,3,4,10a-tetrahydro-2H-phenanthren-4a-yl)-ethyl]-methyl-amine; compound with GENERIC INORGANIC NEUTRAL COMPONENT]",49
5,COc1ccc2c(c1)[C@]13CCCC[C@@H]1[C@H](C2)N(C)CC3 [DEXTROMETHORPHAN],348
6,"COc1ccc2c(c1)[C@]1(CC[N+](C)(C)C(=O)OC(C)(C)C)CCCC[C@@H]1C=C2 [N-{2-[(4aS,10aR)-6-methoxy-1,2,3,4,4a,10a-hexahydrophenanthren-4a-yl]ethyl}-1-(tert-butoxy)-N,N-dimethylcarbonyl{2-[(4aS,10aR)-6-methoxy-1,2,3,4,4a,10a-hexahydrophenanthren-4a-yl]ethyl}dimethylazanium]",> 3300
7,"COc1ccc2c(c1)[C@]1(CCN(C)C)CCCC[C@@H]1C=C2 [[2-((4aS,10aR)-6-Methoxy-1,3,4,10a-tetrahydro-2H-phenanthren-4a-yl)-ethyl]-dimethyl-amine; compound with GENERIC INORGANIC NEUTRAL COMPONENT]",245
8,"CNCC[C@@]12CCCC[C@@H]1C=Cc1ccc(OC)cc12 [[2-((4aS,10aR)-6-Methoxy-1,3,4,10a-tetrahydro-2H-phenanthren-4a-yl)-ethyl]-methyl-amine]",456
9,"CCOC(=O)N(C)CC[C@@]12CCCC[C@@H]1C=Cc1ccc(OC)cc12 [[2-((4aS,10aR)-6-Methoxy-1,3,4,10a-tetrahydro-2H-phenanthren-4a-yl)-ethyl]-methyl-carbamic acid ethyl ester]",> 3300
10,"CN(CC[C@]12CCCC[C@H]1C=Cc1ccc(OCC(=O)OC(C)(C)C)cc12)CC(=O)OC(C)(C)C [{(4bR,8aS)-4b-[2-(tert-Butoxycarbonylmethyl-methyl-amino)-ethyl]-4b,5,6,7,8,8a-hexahydro-phenanthren-3-yloxy}-acetic acid tert-butyl ester]",115
11,"CN(CC[C@@]12CCCC[C@@H]1C=Cc1ccc(OCC(=O)OC(C)(C)C)cc12)CC(=O)OC(C)(C)C [{(4bS,8aR)-4b-[2-(tert-Butoxycarbonylmethyl-methyl-amino)-ethyl]-4b,5,6,7,8,8a-hexahydro-phenanthren-3-yloxy}-acetic acid tert-butyl ester]",14
12,"COc1ccc2c(c1)[C@]1(CCN(C)CC(=O)OC(C)(C)C)CCCC[C@@H]1C=C2 [{[2-((4aS,10aR)-6-Methoxy-1,3,4,10a-tetrahydro-2H-phenanthren-4a-yl)-ethyl]-methyl-amino}-acetic acid tert-butyl ester; compound with GENERIC INORGANIC NEUTRAL COMPONENT]",37
